Key:
Type in all cases: in vivo
corn (Zea mays, ZEAMX) [1] = assay: Test A pre-emergence, corn; settings: after 13 d
In short: (§1)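 Values are percent plant damage 13 d after a pre-emergence spray (15.625, 62.5 or 250 g/ha; acetone/water with 0.5% Tween 20) applied to pots one day post-sowing, under glasshouse conditions of 24/16° C. and twice-daily watering.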

[2] = tested on: giant foxtail (Setaria faberi, SETFA); assay: Test A post-emergence, giant foxtail; settings: after 13 d
In short: (§2)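 Foliar application to 8-day-old seedlings at 15.625, 62.5 or 250 g/ha; phytotoxicity scored 0–100 after 13 d.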

[3] = tested on: ivy-leaved morning glory (Ipomoea hederacea, IPOHE); assay: Test A pre-emergence, ivy-leaved morning glory; settings: after 13 d
In short: as §1

corn (Zea mays, ZEAMX) [4] = assay: Test A post-emergence, corn; settings: after 13 d
In short: as §2

[5] = tested on: redroot pigweed (Amaranthus retroflexus, AMARE); assay: Test A pre-emergence, redroot pigweed; settings: after 13 d
In short: as §1

[6] = tested on: velvetleaf (Abutilon theophrasti, ABUTH); assay: Test A post-emergence, velvetleaf; settings: after 13 d
In short: as §2

[7] = tested on: barnyardgrass (Echinochloa crus-galli, ECHCG); assay: Test A pre-emergence, barnyardgrass; settings: after 13 d
In short: as §1

maize = assay: Test D post-emergence, maize seed treated with a herbicide safener
Method: A formulation containing 50 g/L of the test chemical was prepared by dissolving the active ingredient in a mixture of organic solvents and emulsifier, details of which are provided in the table. This formulation was then mixed with a small, variable amount of acetone to aid dissolution, before addition of a 0.2% v/v aqueous solution of an adjuvant, as the aqueous diluent, to form an aqueous spray solution which contains a predetermined concentration of the active ingredient.
This aqueous spray solution was then sprayed onto plants including maize and wheat that had been seed treated with a herbicide safener, after one day's cultivation (for pre-emergence) or after about 12 days' cultivation (for post-emergence). The plants were grown from seeds sown in standard soil, placed in a glasshouse under controlled conditions (at 24/18° C. or 20/16° C., day/night; 16 h light; 65% humidity). After spray application the plants were then grown in a glasshouse under the same conditions and watered twice daily. After 15 d for post-emergence and 20 DAA for pre-emergence the test was evaluated (100=total damage to plant; 0=no damage to plant).

[8] = tested on: giant foxtail (Setaria faberi, SETFA); assay: Test A pre-emergence, giant foxtail; settings: after 13 d
In short: as §1

[9] = tested on: redroot pigweed (Amaranthus retroflexus, AMARE); assay: Test A post-emergence, redroot pigweed; settings: after 13 d
In short: as §2

Row | SMILES | damage to plant (100=total damage; 0=no damage) ZEAMX (corn (Zea mays, ZEAMX) [1]; Pre-Emergence at 15.625 g/ha) | damage to plant (100=total damage; 0=no damage) ZEAMX (corn (Zea mays, ZEAMX) [1]; Pre-Emergence at 62.5 g/ha) | damage to plant (100=total damage; 0=no damage) ZEAMX (corn (Zea mays, ZEAMX) [1]; Pre-Emergence at 250 g/ha) | damage to plant (100=total damage; 0=no damage) SETFA ([2]; Post-Emergence at 15.625 g/ha) | damage to plant (100=total damage; 0=no damage) SETFA ([2]; Post-Emergence at 62.5 g/ha) | damage to plant (100=total damage; 0=no damage) SETFA ([2]; Post-Emergence at 250 g/ha) | damage to plant (100=total damage; 0=no damage) IPOHE ([3]; Pre-Emergence at 15.625 g/ha) | damage to plant (100=total damage; 0=no damage) IPOHE ([3]; Pre-Emergence at 62.5 g/ha) | damage to plant (100=total damage; 0=no damage) IPOHE ([3]; Pre-Emergence at 250 g/ha) | damage to plant (100=total damage; 0=no damage) ZEAMX (corn (Zea mays, ZEAMX) [4]; Post-Emergence at 15.625 g/ha) | damage to plant (100=total damage; 0=no damage) ZEAMX (corn (Zea mays, ZEAMX) [4]; Post-Emergence at 62.5 g/ha) | damage to plant (100=total damage; 0=no damage) ZEAMX (corn (Zea mays, ZEAMX) [4]; Post-Emergence at 250 g/ha) | damage to plant (100=total damage; 0=no damage) AMARE ([5]; Pre-Emergence at 15.625 g/ha) | damage to plant (100=total damage; 0=no damage) AMARE ([5]; Pre-Emergence at 62.5 g/ha) | damage to plant (100=total damage; 0=no damage) AMARE ([5]; Pre-Emergence at 250 g/ha) | damage to plant (100=total damage; 0=no damage) ABUTH ([6]; Post-Emergence at 15.625 g/ha) | damage to plant (100=total damage; 0=no damage) ABUTH ([6]; Post-Emergence at 62.5 g/ha) | damage to plant (100=total damage; 0=no damage) ABUTH ([6]; Post-Emergence at 250 g/ha) | damage to plant (100=total damage; 0=no damage) ECHCG ([7]; Pre-Emergence at 15.625 g/ha) | damage to plant (100=total damage; 0=no damage) ECHCG ([7]; Pre-Emergence at 62.5 g/ha) | further results
1 | CN1CC(c2cc(C(F)(F)F)n(C)n2)C(C(=O)Nc2cccc(F)c2F)C1=O (racemic) [Compound 3] | 0 | 60 | 90 | 80 | 90 | 90 | 0 | 0 | 30 | 0 | 50 | 80 | 20 | 20 | 70 | 0 | 0 | 0 | 100 | 100 | damage to plant (100=total damage; 0=no damage) ECHCG ([7]; Pre-Emergence at 250 g/ha): 100; damage to plant (100=total damage to plant; 0=no damage to plant), ZEAMX (maize; rate 130, evaluated after 15 d): 0; damage to plant (100=total damage to plant; 0=no damage to plant), ZEAMX (maize; rate 250, evaluated after 15 d): 0; damage to plant (100=total damage to plant; 0=no damage to plant), ZEAMX (maize; rate 500, evaluated after 15 d): 10; damage to plant (100=total damage; 0=no damage) SETFA ([8]; Pre-Emergence at 15.625 g/ha): 90; damage to plant (100=total damage; 0=no damage) SETFA ([8]; Pre-Emergence at 62.5 g/ha): 90; damage to plant (100=total damage; 0=no damage) SETFA ([8]; Pre-Emergence at 250 g/ha): 90; damage to plant (100=total damage; 0=no damage) AMARE ([9]; Post-Emergence at 15.625 g/ha): 0; damage to plant (100=total damage; 0=no damage) AMARE ([9]; Post-Emergence at 62.5 g/ha): 10; damage to plant (100=total damage; 0=no damage) AMARE ([9]; Post-Emergence at 250 g/ha): 20
2 | CN1CC(c2cc(C(F)(F)F)n(C)n2)C(C(=O)Nc2ccccc2F)C1=O (racemic) [Compound 9] | 50 | 0 | 20 | 40 | 90 | 90 | 50 | 0 | 0 | 20 | 0 | 50 | 0 | 0 | 20 | 0 | 0 | 0 | 80 | 90 | damage to plant (100=total damage; 0=no damage) ECHCG ([7]; Pre-Emergence at 250 g/ha): 90; damage to plant (100=total damage; 0=no damage) SETFA ([8]; Pre-Emergence at 15.625 g/ha): 70; damage to plant (100=total damage; 0=no damage) SETFA ([8]; Pre-Emergence at 62.5 g/ha): 90; damage to plant (100=total damage; 0=no damage) SETFA ([8]; Pre-Emergence at 250 g/ha): 90; damage to plant (100=total damage; 0=no damage) AMARE ([9]; Post-Emergence at 15.625 g/ha): 0; damage to plant (100=total damage; 0=no damage) AMARE ([9]; Post-Emergence at 62.5 g/ha): 0; damage to plant (100=total damage; 0=no damage) AMARE ([9]; Post-Emergence at 250 g/ha): 0

Reference: patent US20220281848A1, “PYRAZOLE-SUBSTITUTED PYRROLIDINONES AS HERBICIDES” (FMC Corporation, priority 2019, published 2022)
